From ChEMBL document CHEMBL3399924, “Indirubin 3'-(O-oxiran-2-ylmethyl)oxime: a novel anticancer agent” (Bioorg Med Chem Lett, 2015)
Active and inactive are the calls of the source. No cut-off for these calls is given here.

Tests used:
HepG2 [1] = assay: Cytotoxicity against human HepG2 cells assessed cell death after 72 hrs at 2 uM by alamarBlue assay relative to control; format: functional; details: HepG2, 72 h
[2] = Retention time of the compound by HPLC chromatogram; format: physicochemical
HepG2 [3] = assay: Cytotoxicity against human HepG2 cells assessed cell death after 72 hrs by alamarBlue assay relative to control; format: functional, cell-based; details: HepG2, 72 h
HepG2 [4] = assay: Drug formation in human HepG2 cells treated at 1 uM Epox/Ind by mass spectrometry; format: ADME, cell-based; details: hepg2, 1 µM
HepG2 [5] = assay: Cytotoxicity against human HepG2 cells assessed cell death after 72 hrs at 3 uM by alamarBlue assay relative to control; format: functional; details: HepG2, 72 h
HepG2 [6] = assay: Antiproliferative activity against human HepG2 cells assessed cell survival after 24 hrs by alamarBlue assay; format: functional, cell-based
HepG2 [7] = assay: Cytotoxicity against human HepG2 cells assessed cell survival after 24 hrs at 10 uM by alamarBlue assay; format: functional, cell-based
HepG2 [8] = assay: Drug metabolisam in human HepG2 cells assessed as indirubin 3'-(O-2,3-dihydroxypropyl)oxime formation at 1 uM by mass spectrometry; format: ADME, cell-based; details: hepg2, 1 µM
HepG2 [9] = assay: Cytotoxicity against human HepG2 cells assessed cell death after 24 hrs at 1 uM by alamarBlue assay relative to control; format: functional; details: HepG2, 24 h
HepG2 [10] = assay: Cytotoxicity against human HepG2 cells assessed cell survival rate after 72 hrs at 2 uM by alamarBlue assay relative to control; format: functional
HepG2 [11] = assay: Cytotoxicity against human HepG2 cells assessed cell survival rate after 24 hrs at 2 uM by alamarBlue assay relative to control; format: functional
[12] = Homo sapiens, HepG2, 24 h, read-out: IC50

| SMILES | inhibition at 2 µM (HepG2 [1]) [%] | Retention_time [2] [min] | IC50 (HepG2 [3]) [nM] | inhibition at 3 µM (HepG2 [5]) [%] | IC50 (HepG2 [6]; [12]) [nM] | further results |
| --- | --- | --- | --- | --- | --- | --- |
| O=C1Nc2ccccc2/C1=C1/Nc2ccccc2/C1=N\OCC(O)CO (stereo not drawn) | 15 | 3.392 | 2800 | 58 | 2100 | Drug metabolism (HepG2 [4]): metabolite_detected |
| O=C1Nc2ccccc2/C1=C1/Nc2ccccc2/C1=N\O | – | – | – | – | 15000 | – |
| O=C1Nc2ccccc2/C1=N\OCC1CO1 (stereo not drawn) | – | – | – | – | – | Activity (HepG2 [7]): inactive |
| O=C1Nc2ccccc2/C1=C1/Nc2ccccc2C1=O [INDIRUBIN] | – | – | – | – | – | IC50 (HepG2 [6]; hepg2): Not Active |
| O=C1Nc2ccccc2/C1=C1/Nc2ccccc2/C1=N\OCC1CO1 (stereo not drawn) | 31 | 4.3 | 2300 | 89 | 1700 | Drug metabolism (HepG2 [8]): metabolite_detected; inhibition at 1 µM (HepG2 [9]): 25%; Activity (HepG2 [10]): 44%; Activity (HepG2 [11]): 69% |
